Measurements published in patent US9137997B2 (priority 2011, dated 2015).

`Cc1ccc2sc3c(=O)n(C)c(=O)c=3sc2c1` showed a melting point of 171 to 176 °C.
